Measurements published in patent US20260158009A1 (GENZYME CORPORATION, priority 2023, published 2026).

Assays:
[1] = target: T1, hRIPK1 (aa 1-375) fusion protein (Homo sapiens, UniProt Q13546); test: ADP-Glo kinase assay: catalytic activity of RIPK1 (autophosphorylation, conversion of ATP to ADP); assay type: biochemical
T1 construct: hRIPK1 (aa 1-375) fusion protein
T1 sequence (Q13546 1-375): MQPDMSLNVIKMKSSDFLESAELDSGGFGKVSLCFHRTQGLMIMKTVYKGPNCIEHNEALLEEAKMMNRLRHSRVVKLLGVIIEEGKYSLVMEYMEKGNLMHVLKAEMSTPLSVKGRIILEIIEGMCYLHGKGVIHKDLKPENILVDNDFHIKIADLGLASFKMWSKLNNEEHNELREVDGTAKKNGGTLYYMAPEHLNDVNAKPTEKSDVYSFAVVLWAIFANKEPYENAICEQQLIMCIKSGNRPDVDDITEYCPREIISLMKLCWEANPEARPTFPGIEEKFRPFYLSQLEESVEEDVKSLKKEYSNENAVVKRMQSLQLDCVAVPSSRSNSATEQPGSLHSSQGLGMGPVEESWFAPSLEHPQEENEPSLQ
In short: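 hRIPK1 (aa 1-375) fusion protein (3.6 μg/ml final) was preincubated 30 min at rt with compound (33300-1.69 nM, 1% DMSO), then 50 μM ATP was added for 240 min at rt. ADP from autophosphorylation was measured by ADP-Glo luminescence and curves fitted by nonlinear regression.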

U937 cells = test: Cellular assay in U937 cells: activity of RIPK1 inhibitors on TNFα/zVAD.fmk-induced cell death (necroptosis), CellTiter 96 AQueous (MTS) readout; assay type: cell-based; conditions: Homo sapiens, U-937
In short: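 Necroptosis was measured by viable-cell MTS reduction (4 h, absorbance 490 nm) after overnight (18–24 h) 37° C culture. Cell suspensions of U937 cells carried TNFα (100 ng/ml) plus zVAD.fmk (50 μM) before compound was added. A 10-point curve (10 μM–0.26 nM or 1 μM–0.07 nM) was run in duplicate, normalised to the control lacking TNFα/zVAD.fmk.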

Row | Structure (SMILES) | IC50 [1] [nM] | IC50 (U937 cells) [nM]
1 | Cc1nn(C)cc1-c1cncc(C[C@H]2CC[C@H](C(=O)N3OCC[C@H]3c3cnccn3)CC2)c1 [compound 308, trans-[4-[[5-(1,3-dimethylpyrazol-4-yl)-3-pyridyl]methyl]cyclohexyl]-[(3S)-3-pyrazin-2-ylisoxazolidin-2-yl]methanone] | 21 | 47
2 | Cn1nccc1C[C@H]1CC[C@H](C(=O)N2OCC[C@H]2c2ccc(F)c(F)c2)CC1 [compound 311, trans-[(3S)-3-(3,4-difluorophenyl)isoxazolidin-2-yl]-[4-[(2-methylpyrazol-3-yl)methyl]cyclohexyl]methanone] | 11 | 16
3 | Cc1cc(C[C@H]2CC[C@H](C(=O)N3OCC[C@H]3c3cc(F)cc(C#N)c3)CC2)nc(C)n1 [compound 312, 3-[(3S)-2-[4-[(2,6-dimethylpyrimidin-4-yl)methyl]cyclohexanecarbonyl]isoxazolidin-3-yl]-5-fluoro-benzonitrile] | 38 | 20
4 | Cc1nc2ccc(C[C@H]3CC[C@H](C(=O)N4OCC[C@H]4c4cc(F)cc(F)c4)CC3)nn2n1 [compound 315, [(3S)-3-(3,5-difluorophenyl)-1,2-oxazolidin-2-yl]-[4-[(2-methyl-[1,2,4]triazolo[1,5-b]pyridazin-6-yl)methyl]cyclohexyl]methanone] | 10 | 20
5 | Cc1cnc([C@@H]2CCON2C(=O)[C@H]2CC[C@H](Cc3cc(F)cnc3C)CC2)cn1 [compound 316, trans-[4-[(5-fluoro-2-methyl-3-pyridyl)methyl]cyclohexyl]-[(3S)-3-(5-methylpyrazin-2-yl)isoxazolidin-2-yl]methanone] | 31 | 27
6 | Cc1cc2nnc(C)n2cc1C[C@H]1CC[C@H](C(=O)N2OCC[C@H]2c2ccc(F)c(F)c2)CC1 [compound 318, [(3S)-3-(3,4-difluorophenyl)isoxazolidin-2-yl]-[4-[(3,7-dimethyl-[1,2,4]triazolo[4,3-a]pyridin-6-yl)methyl]cyclohexyl]methanone] | 22 | 27
7 | Cc1cc(C[C@H]2CC[C@H](C(=O)N3OCC[C@H]3c3ccc(F)cc3)CC2)cn2c(C)nnc12 [compound 319, trans-[4-[(3,8-dimethyl-[1,2,4]triazolo[4,3-a]pyridin-6-yl)methyl]cyclohexyl]-[(3S)-3-(4-fluorophenyl)isoxazolidin-2-yl]methanone] | 14 | 33
8 | Cc1nnc2c(F)cc(C[C@H]3CC[C@H](C(=O)N4OCC[C@H]4c4ccc(F)cc4)CC3)cn12 [compound 320, trans-[4-[(8-fluoro-3-methyl-[1,2,4]triazolo[4,3-a]pyridin-6-yl)methyl]cyclohexyl]-[(3S)-3-(4-fluorophenyl)isoxazolidin-2-yl]methanone] | 37 | 28
9 | Cc1cn2ncc(C[C@H]3CC[C@H](C(=O)N4OCC[C@H]4c4cccc(F)c4)CC3)cc2n1 [compound 323, [2-fluoro-4-[(3S)-2-[4-[(2-methylimidazo[1,2-b]pyridazin-7-yl)methyl]cyclohexanecarbonyl]isoxazolidin-3-yl]phenyl]] | 10 | 6
10 | Cc1ccc([C@@H]2CCON2C(=O)[C@H]2CC[C@H](Cc3cc(C)c4nc(C)nn4c3)CC2)cn1 [compound 325, trans-[4-[(2,8-dimethyl-[1,2,4]triazolo[1,5-a]pyridin-6-yl)methyl]cyclohexyl]-[(3S)-3-(6-methyl-3-pyridyl)isoxazolidin-2-yl]methanone] | 125 | 108
11 | Cc1nc2c(C)cc(C[C@H]3CC[C@H](C(=O)N4OCC[C@H]4c4cnccn4)CC3)cn2n1 [compound 326, trans-[4-[(2,8-dimethyl-[1,2,4]triazolo[1,5-a]pyridin-6-yl)methyl]cyclohexyl]-[(3S)-3-pyrazin-2-ylisoxazolidin-2-yl]methanone] | 51 | 59
12 | Cc1nc2c(F)cc(C[C@H]3CC[C@H](C(=O)N4OCC[C@H]4c4cnc(C)c(F)c4)CC3)cn2n1 [compound 327, trans-[(3S)-3-(5-fluoro-6-methyl-3-pyridyl)isoxazolidin-2-yl]-[4-[(8-fluoro-2-methyl-[1,2,4]triazolo[1,5-a]pyridin-6-yl)methyl]cyclohexyl]methanone] | 48 | 48
13 | Cc1cnc([C@@H]2CCON2C(=O)[C@H]2CC[C@H](Cc3cc(C)c4nc(C)nn4c3)CC2)cn1 [compound 328, trans-[4-[(2,8-dimethyl-[1,2,4]triazolo[1,5-a]pyridin-6-yl)methyl]cyclohexyl]-[(3S)-3-(5-methylpyrazin-2-yl)isoxazolidin-2-yl]methanone; 2,2,2-trifluoroacetic] | 47 | 82
14 | Cc1nc2c(C)cc(C[C@H]3CC[C@H](C(=O)N4OCC[C@H]4c4cnc(C)c(F)c4)CC3)cn2n1 [compound 330, trans-[4-[(2,8-dimethyl-[1,2,4]triazolo[1,5-a]pyridin-6-yl)methyl]cyclohexyl]-[(3S)-3-(5-fluoro-6-methylpyridin-3-yl)-1,2-oxazolidin-2-yl]methanone] | 20 | 18
15 | Cc1nc2c(C)cc(C[C@H]3CC[C@H](C(=O)N4OCC[C@H]4c4cncc(F)c4)CC3)cn2n1 [compound 331, trans-[4-[(2,8-dimethyl-[1,2,4]triazolo[1,5-a]pyridin-6-yl)methyl]cyclohexyl]-[(3S)-3-(5-fluoropyridin-3-yl)-1,2-oxazolidin-2-yl]methanone] | 15 | 20
16 | Cc1cc(C[C@H]2CC[C@H](C(=O)N3OCC[C@H]3c3cnc(C)c(F)c3)CC2)c(C)cn1 [compound 332, trans-[4-[(2,5-dimethylpyridin-4-yl)methyl]cyclohexyl]-[(3S)-3-(5-fluoro-6-methylpyridin-3-yl)-1,2-oxazolidin-2-yl]methanone] | 12 | 3

Continued, in another order:

Row | IC50 [1] [nM] | Structure (SMILES) | IC50 (U937 cells) [nM]
17 | 17 | Cn1nccc1C[C@H]1CC[C@H](C(=O)N2OCC[C@H]2c2ccc(F)cc2)CC1 [compound 306, trans-[(3S)-3-(4-fluorophenyl)isoxazolidin-2-yl]-[4-[(2-methylpyrazol-3-yl)methyl]cyclohexyl]methanone] | 25
18 | 15 | Cn1nccc1C[C@H]1CC[C@H](C(=O)N2OCC[C@H]2c2cc(F)cc(F)c2)CC1 [compound 307, trans-[(3S)-3-(3,5-difluorophenyl)isoxazolidin-2-yl]-[4-[(2-methylpyrazol-3-yl)methyl]cyclohexyl]methanone] | 2
19 | 15 | Cc1ncc(C[C@H]2CC[C@H](C(=O)N3OCC[C@H]3c3ccc(F)c(F)c3)CC2)cn1 [compound 309, trans-[(3S)-3-(3,4-difluorophenyl)isoxazolidin-2-yl]-[4-[(2-methylpyrimidin-5-yl)methyl]cyclohexyl]methanone] | 50
20 | 12 | Cc1nc2ccc(C[C@H]3CC[C@H](C(=O)N4OCC[C@H]4c4ccc(F)c(F)c4)CC3)nn2n1 [compound 310, trans-[(3S)-3-(3,4-difluorophenyl)isoxazolidin-2-yl]-[4-[(2-methyl-[1,2,4]triazolo[1,5-b]pyridazin-6-yl)methyl]cyclohexyl]methanone] | 22
21 | 42 | Cc1cc(C[C@H]2CC[C@H](C(=O)N3OCC[C@H]3c3cc(F)cc(F)c3)CC2)ncn1 [compound 313, trans-[(3S)-3-(3,5-difluorophenyl)isoxazolidin-2-yl]-[4-[(6-methylpyrimidin-4-yl)methyl]cyclohexyl]methanone] | 40
22 | 7 | Cc1cc2nnc(C)n2cc1C[C@H]1CC[C@H](C(=O)N2OCC[C@H]2c2cccc(F)c2)CC1 [compound 317, trans-[4-[(3,7-dimethyl-[1,2,4]triazolo[4,3-a]pyridin-6-yl)methyl]cyclohexyl]-[(3S)-3-(3-fluorophenyl)isoxazolidin-2-yl]methanone] | 2
23 | 37 | Cc1cn2ncc(C[C@H]3CC[C@H](C(=O)N4OCC[C@H]4c4cccc(C#N)c4)CC3)cc2n1 [compound 322, [2-cyano-4-[(3S)-2-[4-[(2-methylimidazo[1,2-b]pyridazin-7-yl)methyl]cyclohexanecarbonyl]isoxazolidin-3-yl]phenyl]] | 27
24 | 34 | Cc1cn2ncc(C[C@H]3CC[C@H](C(=O)N4OCC[C@H]4c4ccc(F)cc4)CC3)cc2n1 [compound 324, trans-[4-[(3S)-2-[4-[(2-methylimidazo[1,2-b]pyridazin-7-yl)methyl]cyclohexanecarbonyl]isoxazolidin-3-yl]phenyl]] | 35
25 | 44 | Cc1ccc([C@@H]2CCON2C(=O)[C@H]2CC[C@H](Cc3cnc4cnn(C)c4c3)CC2)cn1 [compound 329, trans-[4-[(1-methylpyrazolo[4,3-b]pyridin-6-yl)methyl]cyclohexyl]-[(3S)-3-(6-methylpyridin-3-yl)-1,2-oxazolidin-2-yl]methanone] | 82
